Drawing on US7998965B2, “Glutamate aggrecanase inhibitors” (Wyeth LLC, priority 2005, dated 2011), this text covers bovine, Ki and IC50 for 15 molecules.

By Ki is commonly meant a measure of affinity in units of concentration, obtained from inhibition or displacement. A word on the IC50: it is the concentration that inhibits the measured activity by half.

Like-named read-outs stand apart in the source and are kept apart here.

The subject of assay [1] is bovine articular cartilage treated with Interleukin 1 alpha (IL-1α). As to the kind of experiment: Bovine articular cartilage explant cultures: inhibition of degradation of proteoglycan. The settings on record: inhibitory effect expressed as percentage, concentration not printed. In kind it is cell-based. The text has this:
This in vitro procedure was used to evaluate the effect and relative potencies of small molecule compounds to inhibit the degradation of proteoglycan in articular cartilage treated with Interleukin 1 alpha (IL-1α). Treatment of articular cartilage with IL 1α induces expression of a cascade of enzymes that initiates cartilage matrix degradation. This assay was utilized to select small molecule compounds that inhibit the enzyme activity and protects cartilage matrix degradation.
Articular cartilage: bovine metacarpal joints were disinfected with 10% Wescodyne followed by 70% ethanol. 6 mm articular cartilage discs were prepared and rinsed once in PBS and medium, respectively. The discs were cultured in a stirring flask with serum-free medium for 5 days for equilibrium with one medium change. Small molecule compounds: stock solutions of test small molecule compounds (usually at 5 mg/ml) were prepared in DMSO. Working solutions were diluted with DMSO and generally ranged from 0.1 μg/ml to 10 ug/ml. The DMSO stocks were stored at […]. Articular cartilage explant culture medium: DMEM, 2 mM glutamax, 100 U/ml of antibiotic and antimycotic, 50 μg/ml ascorbate and 10 mM Hepes (pH-7.0). Proteoglycan content-Dimethyl methylene blue (DMMB) solution: […] DMMB, 10 ml 100% ethanol, 29.5 ml of 1M NaOH, 3.5 ml of 98% formic acid and water to 1 L. Chondroitin sulphate sodium salt: 1.56-200 ug/ml serial dilutions.
For the explant culture, cartilage discs were cultured in serum-free medium for 48 h or more. Discs were weighed and transferred to a 96-well plate, 1 disc per-well. 0.2 ml of medium containing 5 ng/ml of IL-1 and different concentrations of compounds were added to each well, with 3 wells allocated for each treatment. The medium was collected at days 1, 2, & 3 and replaced accordingly.
For the DMMB assay, conditioned medium (CM) samples were diluted with medium. 10 ul of each standard or diluted sample was added in duplicate into a 96-well-plate and 200 μl of DMMB solution was added into each well. Absorbance at 520 nm was measured for each well. Proteoglycan contents in CM were calculated daily.
The proteoglycan contents are expressed as ug per mg of cartilage. The inhibitory effect of the compounds is expressed as percentage. (See, Tortorella, M. D. et al., Science 1999, 284, 1664-1666).

Assay [2] concerns the target T1, purified recombinant human Aggrecanase-1 (rAgg1) (Homo sapiens, UniProt O75173).
T1 sequence (O75173 213-837): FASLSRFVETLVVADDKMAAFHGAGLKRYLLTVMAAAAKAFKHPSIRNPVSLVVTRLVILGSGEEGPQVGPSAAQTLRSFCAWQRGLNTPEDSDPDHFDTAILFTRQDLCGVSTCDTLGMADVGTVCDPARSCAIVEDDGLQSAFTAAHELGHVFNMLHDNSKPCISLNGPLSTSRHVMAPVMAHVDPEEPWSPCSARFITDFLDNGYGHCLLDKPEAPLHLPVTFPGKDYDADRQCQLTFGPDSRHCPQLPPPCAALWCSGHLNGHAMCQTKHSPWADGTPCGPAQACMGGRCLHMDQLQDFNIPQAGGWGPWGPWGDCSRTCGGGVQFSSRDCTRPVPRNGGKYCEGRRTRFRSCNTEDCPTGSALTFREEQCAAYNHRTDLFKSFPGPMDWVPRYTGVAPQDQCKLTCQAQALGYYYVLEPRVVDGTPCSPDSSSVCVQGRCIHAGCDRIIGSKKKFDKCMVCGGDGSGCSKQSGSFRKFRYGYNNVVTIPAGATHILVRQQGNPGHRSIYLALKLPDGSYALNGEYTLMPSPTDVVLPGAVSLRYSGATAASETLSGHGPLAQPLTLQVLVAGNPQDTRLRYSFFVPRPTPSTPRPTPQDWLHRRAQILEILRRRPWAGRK
Nature of the assay: In vitro fluorescence screen for Aggrecanase-1 inhibitors. In kind it is biochemical. The settings on record: for Ki: enzyme not given, column follows Agg1 IC50, read-out: Ki; for IC50: read-out: Agg1 IC50.

Assay [3] addresses T2, purified recombinant human Aggrecanase-2 (Ag2t-Phe628-Strep) (Homo sapiens, UniProt Q9UNA0).
T2 construct: the form used is denoted as Ag2t-Phe628-Strep (MW=41,737)
T2 sequence (Q9UNA0 262-628): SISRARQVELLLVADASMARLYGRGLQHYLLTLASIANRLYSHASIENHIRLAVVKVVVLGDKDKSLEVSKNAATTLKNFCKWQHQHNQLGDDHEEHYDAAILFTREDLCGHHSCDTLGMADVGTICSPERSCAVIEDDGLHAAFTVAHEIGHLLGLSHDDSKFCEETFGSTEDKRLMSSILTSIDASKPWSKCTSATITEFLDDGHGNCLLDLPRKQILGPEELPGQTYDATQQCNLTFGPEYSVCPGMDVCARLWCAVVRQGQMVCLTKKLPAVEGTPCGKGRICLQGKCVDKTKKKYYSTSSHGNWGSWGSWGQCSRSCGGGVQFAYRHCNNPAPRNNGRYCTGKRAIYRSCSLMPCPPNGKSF
As to the kind of experiment: In vitro fluorescence screen for Aggrecanase-2 inhibitors. The note with it: Table 2; read-out: Agg 2 IC50. In kind it is biochemical.

The target of assay [4] is T3, recombinant human catalytic domain of MMP-13 (Homo sapiens, UniProt P45452).
T3 construct: catalytic domain of MMP-13 (165 amino acids, residues 104-268, 19 kDa)
Nature of the assay: In vitro fluorescence assay of MMP-13 activity. In kind it is biochemical. The settings on record: Table 2; nM printed in one cell only.

[5] abbreviates: Table 1, first of two columns headed bovine.
Where [6] appears, read: Table 1, second of two columns headed bovine.

For `O=C(O)CC[C@H](NC(=O)c1ccc(-c2ccccc2)cc1)C(=O)NCc1ccc(F)c(F)c1` [Example 8AAA, N^2-(1,1′-biphenyl-4-ylcarbonyl)-N^1-(3,4-difluorobenzyl)-L-α-glutamine], the bovine in assay [1] (setting [5]) is given as 83%; in assay [1] (setting [6]), 55%. For the same molecule, the Ki in assay [2] (Table 1) is 44 nM. Besides, in assay [2] (Table 1), the half-inhibitory concentration (IC50) came out at 48 nM.
In the case of `CN(C)c1cccc(CNC(=O)[C@H](CCC(=O)O)NC(=O)c2ccc(-c3ccccc3)cc2)c1` [Example 8BBBB, N^2-(biphenyl-4-ylcarbonyl)-N^1-[3-(dimethylamino)benzyl]-L-α-glutamine], the bovine worked out at 40% in assay [1] (setting [5]) and 0% in assay [1] (setting [6]). The IC50 in assay [2] (Table 1) turned out to be 100 nM.
With `O=C(O)CC[C@H](NC(=O)c1ccc(-c2ccccc2)cc1)C(=O)NCC1CC1` [Example 8CCC, N^2-(1,1′-biphenyl-4-ylcarbonyl)-N^1-(cyclopropylmethyl)-L-α-glutamine], the bovine in assay [1] (setting [5]) is reported as 74%; in assay [1] (setting [6]) it was 26%. Further, the IC50 in assay [2] (Table 1) worked out at 100 nM.
As to `O=C(O)CC[C@H](NC(=O)c1ccc(-c2ccccc2)cc1)C(=O)NCCCc1ccccc1` [Example 8FF, N^2-(1,1′-biphenyl-4-ylcarbonyl)-N^1-(3-phenylpropyl)-L-α-glutamine], the bovine in assay [1] (setting [5]) turned out to be 86%; in assay [1] (setting [6]), 50%. Also, the Ki in assay [2] (Table 1) stood at 28 nM. Further, the half-inhibitory concentration (IC50) in assay [2] (Table 1) worked out at 26 nM.
With `CCCNC(=O)[C@H](CCC(=O)O)NC(=O)c1ccc2c(c1)Cc1ccccc1-2` [Example 8FFFFF, N^2-(9H-fluoren-2-ylcarbonyl)-N^1-propyl-L-α-glutamine], the IC50 in assay [3] was 710 nM; in assay [2] (Table 2), 92 nM; in assay [4], over 100000 nM.
For `O=C(O)CC[C@H](NC(=O)c1ccc(-c2ccccc2)cc1)C(=O)NCc1cccc(C(F)(F)F)c1` [Example 8GGG, N^2-(1,1′-biphenyl-4-ylcarbonyl)-N^1-[3-(trifluoromethyl)benzyl]-L-α-glutamine], the bovine in assay [1] (setting [5]) came to 57%; in assay [1] (setting [6]), 12%. In assay [2] (Table 1), the IC50 was found to be 100 nM.
With `O=C(O)CC[C@H](NC(=O)c1ccc(-c2ccccc2)cc1)C(=O)NCCCCc1ccccc1` [Example 8II, N^2-(1,1′-biphenyl-4-ylcarbonyl)-N^1-(4-phenylbutyl)-L-α-glutamine], the bovine was found to be 75% in assay [1] (setting [5]) and 40% in assay [1] (setting [6]). The Ki in assay [2] (Table 1) stood at 39 nM. Besides, the half-inhibitory concentration (IC50) in assay [2] (Table 1) worked out at 44 nM.
`O=C(O)CC[C@H](NC(=O)c1ccc(-c2ccccc2)cc1)C(=O)NCc1ccc(OC(F)(F)F)cc1` [Example 8T, N^2-(1,1′-biphenyl-4-ylcarbonyl)-N^1-[4-(trifluoromethoxy)benzyl]-L-α-glutamine]: the figures for the bovine in assay [1] (setting [5]) and in assay [1] (setting [6]) were 51% and 20%, respectively. For the same molecule, the IC50 in assay [2] (Table 1) was 300 nM.
With `O=C(O)CC[C@H](NC(=O)c1ccc(-c2ccccc2)cc1)C(=O)NCc1cccc(OC(F)(F)F)c1` [Example 8U, N^2-(1,1′-biphenyl-4-ylcarbonyl)-N^1-[3-(trifluoromethoxy)benzyl]-L-α-glutamine], the bovine worked out at 63% in assay [1] (setting [5]) and 26% in assay [1] (setting [6]). In assay [2] (Table 1), the half-maximal inhibitory concentration (IC50) worked out at 200 nM.
Regarding `O=C(O)CC[C@H](NC(=O)c1ccc(-c2ccccc2)cc1)C(=O)NC1c2ccccc2-c2ccccc21` [Example 8YYYYY, N^2-(biphenyl-4-ylcarbonyl)-N^1-9H-fluoren-9-yl-L-α-glutamine], the half-maximal inhibitory concentration (IC50) is 2800 nM in assay [3], 87 nM in assay [2] (Table 2) and about 20000 nM in assay [4].
Taken in the same sequence, the figures for `CC(C)(Cc1ccc(F)cc1)NC(=O)[C@H](CCC(=O)O)NC(=O)c1ccc2c(c1)Cc1ccccc1-2` [Example 8ZZZZZ, N^2-(9H-fluoren-2-ylcarbonyl)-N^1-[2-(4-fluorophenyl)-1,1-dimethylethyl]-L-α-glutamine] were 63 nM, under 30 nM and over 100000 nM.
Taken in the same sequence, the figures for `COc1cccc(-c2ccc(C(=O)N[C@@H](CCC(=O)O)C(=O)NC(C)(C)Cc3ccccc3)cc2)c1` [Example 17I, N-(1,1-dimethyl-2-phenylethyl)-N^2-[(3′-methoxybiphenyl-4-yl)carbonyl]-L-α-glutamine] were 217 nM, under 30 nM and about 100000 nM.
Taken in the same sequence, the figures for `COc1cc(CNC(=O)C(CCC(=O)O)NC(=O)c2ccc(-c3ccc4c(c3)OCO4)cc2)cc(OC)c1OC` (stereo not drawn) [Example 17N, 4-(4-Benzo[1,3]dioxol-5-yl-benzoylamino)-4-(3,4,5-trimethoxy-benzylcarbamoyl)-butyric acid] were 42 nM, 40 nM and 11200 nM.
As to `COc1cc(CNC(=O)[C@H](CCC(=O)O)NC(=O)c2ccc(-c3ccc(C)c(F)c3)cc2)cc(OC)c1OC` [Example 17R, N^2-[(3′-fluoro-4′-methylbiphenyl-4-yl)carbonyl]-N-(3,4,5-trimethoxybenzyl)-L-α-glutamine], the IC50 in assay [3] was 142 nM; in assay [2] (Table 2), 73 nM; in assay [4], 6000 nM.
Turning to `COc1cc(COc2ccc(-c3ccc(C(=O)N[C@@H](CCC(=O)O)C(=O)NCc4cc(OC)c(OC)c(OC)c4)cc3)cc2)cc(OC)c1` [Example 18, N^2-({4′-[(3,5-dimethoxybenzyl)oxy]biphenyl-4-yl}carbonyl)-N-(3,4,5-trimethoxybenzyl)-L-α-glutamine], the results for the IC50 in assay [3], in assay [2] (Table 2) and in assay [4] were 50 nM, 49 nM and about 1600 nM, respectively.
